Laboratory results as given in EP4623928A1, “GLP-1R ANTAGONISTS FOR THE TREATMENT OF CANCER” (Fiorina, Paolo, priority 2024, dated 2025).

Key:
[1] = system: CD4^+ and CD8^+ T cells; experiment: Cell death and proliferation of CD4+ and CD8+ T cells in splenocytes activated with anti-CD3/anti-CD28 (FACS); assay type: cell-based, C57BL/6 mice; conditions: anti-CD3/anti-CD28 activated splenocytes
[2] = system: naive CD4^+CD25^- T cells; experiment: Treg induction assay; assay type: cell-based; conditions: Exe-4 (1nM), 5 days
Protocol: Naive CD4^+ CD25^- T cells were selected and activated for 5 days with 1 µg/ml of plate-bound […] anti-CD3 and anti-CD28 antibodies (BD Biosciences). Cells were cultured for 5-days in the presence of IL-2 (10ng/ml; R&D Systems) and TGFβ (2ng/mL; R&D Systems), anti-IL-4 (0.5µg/ml; PeproTech) and anti-IFNγ (2µg/mL; PeproTech) and were treated with Exe-4 (1nM) or left untreated. Then, cells were washed, pulsed for 4-hrs with phorbol myristate acetate (PMA; 50ng/mL; Sigma-Aldrich), ionomycin (500ng/mL; Sigma-Aldrich) and Golgi-stop (1.0µl/mL; BD Biosciences) and then analyzed by FACSCelesta (BD Biosciences) for the expression of Foxp3, Tbet and RoryT as previously reported (38).

[3] = system: GLP-1R^pos and GLP-1R^neg CD3^+ T cells; experiment: Proliferation, apoptosis and IFN-γ expression of GLP-1Rpos and GLP-1Rneg CD3+ T cells stimulated with anti-CD3/anti-CD28; assay type: cell-based, C57BL/6 mice; conditions: for proliferation rate: anti-CD3/anti-CD28
Protocol: FACS analysis was performed with a FACSCelesta (BD Bioscience) on murine splenocytes or on single cells suspension prepared upon collagenase-digestion of grafted organs. We used the following antibodies: APC conjugated Rat anti-mouse CD62L, PE conjugated Rat anti-mouse CD44, PerCp conjugated Rat anti-mouse CD4 or PerCp conjugated Rat anti-mouse CD8, (Biolegend, San Diego, CA, USA), and APC conjugated anti-mouse/human insulin (R&D, Minneapolis, MN - USA). GLP-1R was detected by indirect staining; the primary antibody was purchased from Alomone Lab (Jerusalem, Israel) and variably associated with FITC or APC-conjugated anti-isotype Ab (BD and Biolegend respectively). For intracellular staining, splenocytes were isolated from BL6 mice were incubated with and w/o anti CD3/CD28 used both at 0.5 µg/ml, Exe-4 (0.1nM, 1nM and 10nM) or with Exe-4+Exe-9-39 (0.1nM, 1nM and 10nM). After 24hours incubation, cells were collected, washed and plated in RPMI 10% FBS, then stimulated with 50 ng/ml PMA (Sigma Aldrich), 500 ng/ml ionomycin (Sigma Aldrich) and Golgi Stop as recommended by the manufacturer (BD Biosciences, San Diego, CA, USA) for 4h in a humidified incubator 37°C, 5% CO2. After incubation, cells were collected, washed and stained for surface markers, i.e CD4 BUV737, CD8 BUV395, (BD Biosciences, San Diego, CA, USA) and GLP-1R FITC (Alomone Lab, Jerusalem, Israel). They were further fixed, permeabilized using the BD Cytofix/Cytoperm Kit (BD Biosciences, San Diego, CA, USA), and stained with a mAb against IFN-γ (eBioscience). Finally, CD4^+ GLP-1R^+ IFN-γ^+ and CD8^+ GLP-1R^+ IFN-γ ^+ T cells were assessed by flow cytometry analysis. For the expression of GLP-1R on innate immune cells, the following antibodies were used: CD4 BB700, NK1.1 BV421, CD127 BV605, CD44 PE, GLP-1R FITC/PD1 FITC, Viability Dye BV510 (NKT subset); CD45 BV786, CD3 BB700, NK1.1 BV421, GLP-1R FITC/PD1 FITC, Viability Dye BV510 (NK subset); CD45 BB700, CD11c BV786, CD11b BV421, GLP-1R FITC/PD1 FITC, Viability Dye BV510; CD45 PE-CF594, CD127 BV605, NK1.1 BV421, CD335 BV786, CD49a BV650, CD117 BB700, IL33R PE, IL23R BV711, GLP-1R FITC/PD1 FITC, Viability Dye BV510 (LCs subset). For the determination of the chemokine receptors profile of GLP-1R^+ CD3^+ T cells, the following antibodies were used: GLP-1R FITC, CXCR4 PE, CX3CR1 BV605, CCR2 BV421, CCR5 BV650, CCR7 BV786, CXCR3 BB700, CXCR6 BV711, Viability Dye BV510.

[4] = system: CD3^+ T cells; experiment: Phosphoproteomic array of CD3+ T cells; assay type: cell-based, murine; conditions: Exe-4 (1 nM), 24 hours, vs untreated
Protocol: Isolated CD3^+ T cells from splenocytes were treated with Exendin-4 (Exe-4) for 24hrs or left untreated. Total soluble proteins from both cell extracts, approximately 7×10^6 cells per conditions were used, all steps were performed using the Phospho Explorer Antibody Array kit (Full Moon Biosystems, PEX100) as recommended by the manufacturer (41). Next, soluble extracted proteins were biotinylated and were next incubated with a mixture of Cy3-streptavidin-detection buffer and the array slides were incubated on a rotating shaker for 30 min at RT. After, several washing steps, the array slides were allowed to dry by centrifugation. Dry array slides were analyzed by a slide-based microarray scanner as recommended by the manufacturer.

## Exendin-4 [Exe-4]
[1]; Exe-4 alone (1 nM)
  cell death of CD4^+ and CD8^+ T cells: significant increase
[1]; Exe-4 alone
  proliferation of CD4^+ and CD8^+ T cells: no effect
[2]
  Ror-yT on iTregs (iTreg stability): significant reduction
  Tbet on iTregs (iTreg stability): significant reduction
  Treg induction (percentage of FoxP3^+CD4^+CD25^+ Tregs): no substantial differences
[3]; GLP-1R^neg CD3^+ T cells, Exe-4 (1 nM)
  proliferation rate: but not of GLP-1R^neg CD3^+ T cells
[3]; GLP-1R^pos CD3^+ T cells, Exe-4 (1 nM)
  proliferation rate: slightly modulated
[3]; GLP-1R^pos and GLP-1R^neg CD3^+ T cells, Exe-4 (1 nM)
  IFN-y expression: no evident effect
[3]; GLP-1R^pos vs GLP-1R^neg CD3^+ T cells, with or without Exe-4
  apoptosis (GLP-1R^pos more apoptotic than GLP-1R^neg): independently of Exe-4 treatment
[4]
  expression and activation of signalling molecules (phosphoproteomic arrays): altered the expression and the activation of several signalling molecules
